Test results published in patent publication US12466840B2, “Small molecule inhibitors of KRAS proteins” (Merck Sharp & Dohme LLC, priority 2023, dated 2025).
Where two headings read alike, the source gives them in different places. One block for each molecule: values may come before it.

Assays:
[1] = test system: MKN-1 cells (amplified wild-type KRAS); assay: Cellular phospho-ERK assay, MKN-1 cells; assay type: cell-based; conditions: 2 h, p-ERK vs. total ERK, read-out: MKN1 pERK IC50
Procedure: Procedure for Cellular Phospho-ERK Assay in KRAS Wild Type and Mutant (G12D, G12V) Cell Lines
MKN-1 cells (JCRB JCRB0252) containing amplified wild-type KRAS, were cultured in growth medium that contains RPMI 1640-GlutaMAX™-I (ThermoFisher Scientific 61870) containing 10% heat inactivated fetal bovine serum (ThermoFisher Scientific 10091148), 1 mM sodium pyruvate and 10 mM HEPES. AsPC-1 cells (ATCC® CRL-1682™), containing homozygous KRAS-G12D activating mutation, were cultured in T150 flask in growth medium (RPMI medium 1640-GlutaMAX™-I (ThermoFisher Scientific 61870) containing 10% fetal bovine serum (ThermoFisher Scientific 10091148)). SW620 cells (ATCC® CRL-227™) containing homozygous KRAS-G12V activating mutation, were cultured in growth medium that contains RPMI 1640-GlutaMAX™-I (ThermoFisher Scientific 61870) containing 10% heat inactivated fetal bovine serum (ThermoFisher Scientific 10091148).
Cells for the assay were harvested in growth medium after TrypLE (ThermoFisher scientific 12604021) digestion and were seeded in a 384-well collagen coated cell culture plate (Corning 356702) at a density of 10,000-15,000 cells/[…]/well, and incubated at 37° C., 5% CO2 overnight. The compound (with 10 mM stock concentration) dose-response titrations were prepared [30 μM final ERK detection assay concentration and 1:3 dilutions, 10-point dose response] and appropriate amounts (270 nL) of test compounds were dispensed in a 384-well intermediate plate using an Echo 550 liquid handler. 30 μL/well of RPMI medium 1640-GlutaMAX™-I was added to the intermediate plate and the contents of the intermediate plate (10 μL/well) were then transferred to the 384-well collagen coated cell culture plate, which was incubated at 37° C., 5% CO2 for 2 h. After removal of medium from the collagen coated cell culture plate, cells were lysed in lysis buffer from Alpha SureFire® Ultra™ Multiplex p-ERK and total ERK assay kit (PerkinElmer MPSU-PTERK) containing Halt™ Protease and Phosphatase inhibitor cocktail (ThermoFisher Scientific 78446) at room temperature with constant shaking at 300 rpm for 30 minutes. The cell lysates were then transferred to an OptiPlate-384 plate (PerkinElmer 6005620), and the phosphorylation of ERK (p-ERK) and total ERK levels were detected by Alpha SureFire® Ultra™ Multiplex p-EEK kit and total ERK assay kit (PerkinElmer MPSU-PTERK) following the manufacturer's protocol. Assay plates were read on a EnVision Multimode Plate Reader (PerkinElmer), and the ratio of p-ERK vs. total ERK in each well was used as the final readout. Dose response curves were analyzed using a 4-parameter logistic model to calculate IC50 values using Spotfire software.

KRAS G12A = KRAS G12A (Homo sapiens (Human), UniProt P01116, G12A); assay: SOS-catalyzed nucleotide exchange assay (GNE), KRAS G12A; assay type: biochemical; conditions: TR-FRET, 60 min preincubation
Chain of KRAS G12A (P01116 other isoform, or with tags, fused parts or gaps G12A (already in the parent)): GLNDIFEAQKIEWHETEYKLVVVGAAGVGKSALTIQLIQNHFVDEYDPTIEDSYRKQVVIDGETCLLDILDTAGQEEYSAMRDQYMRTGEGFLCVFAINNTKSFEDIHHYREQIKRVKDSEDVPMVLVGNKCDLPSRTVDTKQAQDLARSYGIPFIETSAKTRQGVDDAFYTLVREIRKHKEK
Excerpt: (§1) Procedure for SOS-Catalyzed Nucleotide Exchange Assay for KRAS-WT, G12C/D/V/A/R/S, G13D, Q61H, HRAS-WT, and NRAS-WT
(§2) Recombinant KRAS-G12C protein used in this assay has an additional triple mutation (C51S/C80L/C118S). Whereas KRAS-WT, G12D/V/A/S/R, G13D, Q61H, HRAS and NRAS are in context of their WT protein sequence background. Specifically, the SOS-catalyzed nucleotide exchange assay utilizes a preformed TR-FRET complex containing a specific biotinylated RAS protein (KRAS-WT, G12C/V/D/A/S/R, G13D, Q61H, HRAS-WT, NRAS-WT; described above) with Bodipy-GDP, and Terbium-streptavidin. Compounds are preincubated with this complex for 60 minutes. Subsequently, recombinant human SOS protein and unlabeled GTP are added to initiate the exchange reaction. Small molecule inhibitors stabilize the Bodipy-GDP complex whereas the untreated protein rapidly exchanges Bodipy-GDP for unlabeled GTP resulting in reduced TR-FRET signal.
(§3) To assemble the preformed TR-FRET complexes, each biotinylated RAS protein is diluted to 2 μM in an EDTA Buffer (20 mM HEPES pH 7.5, 50 mM sodium chloride, 10 mM EDTA, and 0.01% Tween) and incubated at room temperature for one hour. This mixture is then further diluted to 90 nM in an Assay Buffer (20 mM HEPES pH 7.5, 150 mM sodium chloride, 10 mM magnesium chloride, and 0.005% Tween) containing 15 nM of Terbium-Streptavidin (Invitrogen, catalog #PV3577) and 900 nM of Bodipy-GDP (Invitrogen, catalog #G22360) and incubated at room temperature for six hours. It should be noted that this preformed TR-FRET complex for each of the RAS protein were made ahead of time, aliquoted and stored at −80° C. until the day of the experiment.
(§4) Each test compound (10 mM stock in DMSO) is diluted in DMSO to make a final-10-point, 3-fold dilution and is acoustically dispensed into a 384-well assay plate (Corning, catalog #3820) using an Echo 550 (Labcyte). Each well of the assay plate receives 3 μL of a specific 3×RAS preformed TR-FRET complex and 3 μL of Assay Buffer and is incubated at room temperature for 60 minutes (preincubation time). Each well then receives 3 μL of 3× recombinant human SOS protein and GTP (Sigma, G8877) in Assay Buffer and is incubated at room temperature for 30 minutes (G13D), 60 minutes (KRAS WT/G12C/D, H/NRAS) or 90 minutes for G12A/R/S/V and Q61H. The final reaction in each well of 9 μL consists of 3 mM GTP, specific Ras and SOS proteins in the following concentrations: KRAS-G12C/SOS=3 nM/40 nM, KRAS-WT and G12D/SOS=1 nM/40 nM, KRAS-G12V/SOS=1.25 nM/160 nM, KRAS-G12A/S/SOS=1 nM/160 nM, KRAS-G12R/SOS=1 nM/320 nM, KRAS-Q61H/SOS=1 nM/320 nM, KRAS-G13D/SOS=1.25 nM/[…], HRAS-WT and NRAS-WT=1.25 nM/40 nM.
(§5) The time-resolved fluorescence resonance energy transfer (TR-FRET) signal is measured on an Envision (PerkinElmer) plate reader: Excitation filter=340 nm; emission1=495 nm; emission2=520 nm; dichroic mirror=D400/D505; delay time=[…]. The signal of each well is determined as the ratio of the emission at 520 nm to that at 495 nm. Percent effect of each well is determined after normalization to control wells containing DMSO (no effect) or a saturating concentration of inhibitor (max effect). The apparent effect as a function of compound concentration is fit to a four-parameter logistic equation.

KRAS G12R = KRAS G12R (Homo sapiens (Human), UniProt P01116, G12R); assay: SOS-catalyzed nucleotide exchange assay (GNE), KRAS G12R; assay type: biochemical; conditions: TR-FRET, 60 min preincubation
Chain of KRAS G12R (P01116 other isoform, or with tags, fused parts or gaps G12R (already in the parent)): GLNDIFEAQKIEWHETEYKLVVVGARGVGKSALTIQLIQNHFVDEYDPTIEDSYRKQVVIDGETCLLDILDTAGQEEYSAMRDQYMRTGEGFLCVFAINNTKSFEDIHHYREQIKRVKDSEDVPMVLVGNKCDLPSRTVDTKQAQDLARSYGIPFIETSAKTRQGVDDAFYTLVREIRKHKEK
Excerpt: as §1, §2, §3, §4, §5

Structure (SMILES): F/C=C1/CN2CCC[C@@]2(COc2nc3c4c(nc(-c5c(C6CC6)c(Cl)cc6[nH]ncc56)c(F)c4n2)OC[C@@H]2COCCCN32)C1 [Ex-1, (8aS)-5-(6-chloro-5-cyclopropyl-1H-indazol-4-yl)-4-fluoro-2-(((S,Z)-2-(fluoromethylene)tetrahydro-1H-pyrrolizin-7a(5H)-yl)methoxy)-8a,9,12,13-tetrahydro-8H,11H-7,10-dioxa-1,3,6,13a-tetraazanaphtho[1,8-ab]heptalene]
IC50 [1]: 9.1 nM
IC50 (KRAS G12A): < 0.69 nM
IC50 (KRAS G12R): < 0.69 nM

Structure (SMILES): CCc1c(F)ccc2cc3[nH]ncc3c(-c3nc4c5c(nc(OC[C@@]67CCCN6C[C@H](F)C7)nc5c3F)N3CCCOC[C@H]3CO4)c12 [Ex-2, (8aS)-5-(5-ethyl-6-fluoro-1H-benzo[f]indazol-4-yl)-4-fluoro-2-(((2R,7aS)-2-fluorotetrahydro-1H-pyrrolizin-7a(5H)-yl)methoxy)-8a,9,12,13-tetrahydro-8H,11H-7,10-dioxa-1,3,6,13a-tetraazanaphtho[1,8-ab]heptalene]
IC50 [1]: 7.9 nM
IC50 (KRAS G12A): < 0.69 nM
IC50 (KRAS G12R): < 0.69 nM

Structure (SMILES): CCc1c(F)ccc2cc3[nH]nc(C)c3c(-c3nc4c5c(nc(OC[C@@]67CCCN6C/C(=C\F)C7)nc5c3F)N3CCCOC[C@H]3CO4)c12 [Ex-7, (8aS)-5-(5-ethyl-6-fluoro-3-methyl-1H-benzo[f]indazol-4-yl)-4-fluoro-2-(((S,Z)-2-(fluoromethylene)tetrahydro-1H-pyrrolizin-7a(5H)-yl)methoxy)-8a,9,12,13-tetrahydro-8H,11H-7,10-dioxa-1,3,6,13a-tetraazanaphtho[1,8-ab]heptalene]
IC50 [1]: 12 nM
IC50 (KRAS G12A): 1.3 nM
IC50 (KRAS G12R): 1.3 nM

Next, values leading:

IC50 ([1]; Homo sapiens): 9.7 nM
Structure (SMILES): Fc1c(-c2c(C3CC3)c(Cl)cc3[nH]ncc23)nc2c3c(nc(OC[C@@]45CCCN4C[C@H](F)C5)nc13)N1CCCOC[C@H]1CO2 [Ex-3, (8aS)-5-(6-chloro-5-cyclopropyl-1H-indazol-4-yl)-4-fluoro-2-(((2R,7aS)-2-fluorotetrahydro-1H-pyrrolizin-7a(5H)-yl)methoxy)-8a,9,12,13-tetrahydro-8H,11H-7,10-dioxa-1,3,6,13a-tetraazanaphtho[1,8-ab]heptalene]

IC50 ([1]; Homo sapiens): 6.6 nM
IC50 (KRAS G12A): < 0.69 nM
IC50 (KRAS G12R): < 0.69 nM
Structure (SMILES): CCc1c(F)ccc2cc3[nH]ncc3c(-c3nc4c5c(nc(OC[C@@]67CCCN6C/C(=C\F)C7)nc5c3F)N3CCCOC[C@H]3CO4)c12 [Ex-4, (8aS)-5-(5-ethyl-6-fluoro-1H-benzo[f]indazol-4-yl)-4-fluoro-2-(((S,Z)-2-(fluoromethylene)tetrahydro-1H-pyrrolizin-7a(5H)-yl)methoxy)-8a,9,12,13-tetrahydro-8H,11H-7,10-dioxa-1,3,6,13a-tetraazanaphtho[1,8-ab]heptalene]

IC50 ([1]; Homo sapiens): 4.3 nM
IC50 (KRAS G12A): 0.83 nM
IC50 (KRAS G12R): 1.3 nM
Structure (SMILES): F/C=C1\CN2CCC[C@@]2(COc2nc3c4c(nc(-c5c(C6(F)CC6)c(Cl)cc6[nH]ncc56)c(F)c4n2)OC[C@@H]2COCCCN32)C1 [Ex-5, (8aS)-5-(6-chloro-5-(1-fluorocyclopropyl)-1H-indazol-4-yl)-4-fluoro-2-(((S,Z)-2-(fluoromethylene)tetrahydro-1H-pyrrolizin-7a(5H)-yl)methoxy)-8a,9,12,13-tetrahydro-8H,11H-7,10-dioxa-1,3,6,13a-tetraazanaphtho[1,8-ab]heptalene]

IC50 ([1]; Homo sapiens): 14 nM
IC50 (KRAS G12A): 1 nM
IC50 (KRAS G12R): 1.2 nM
Structure (SMILES): CCc1c(F)ccc2cc3[nH]nc(C)c3c(-c3nc4c5c(nc(OC[C@@]67CCCN6C[C@H](F)C7)nc5c3F)N3CCCOC[C@H]3CO4)c12 [Ex-6, (8aS)-5-(5-ethyl-6-fluoro-3-methyl-1H-benzo[f]indazol-4-yl)-4-fluoro-2-(((2R,7aS)-2-fluorotetrahydro-1H-pyrrolizin-7a(5H)-yl)methoxy)-8a,9,12,13-tetrahydro-8H,11H-7,10-dioxa-1,3,6,13a-tetraazanaphtho[1,8-ab]heptalene]
